{"source": "patent US10301260B2", "about": "“Pyrrolidine GPR40 modulators” (BRISTOL-MYERS SQUIBB COMPANY, priority 2014, dated 2019)", "note": "pEC50: −log10 of the molar value. Counter-ions that a name gives are not always drawn.", "data": [{"target": "T1, hGPR40 (Homo sapiens, UniProt O14842)", "T1 construct": "3xFLAG; expressed in transfected cells", "T1 sequence (O14842 whole entry)": "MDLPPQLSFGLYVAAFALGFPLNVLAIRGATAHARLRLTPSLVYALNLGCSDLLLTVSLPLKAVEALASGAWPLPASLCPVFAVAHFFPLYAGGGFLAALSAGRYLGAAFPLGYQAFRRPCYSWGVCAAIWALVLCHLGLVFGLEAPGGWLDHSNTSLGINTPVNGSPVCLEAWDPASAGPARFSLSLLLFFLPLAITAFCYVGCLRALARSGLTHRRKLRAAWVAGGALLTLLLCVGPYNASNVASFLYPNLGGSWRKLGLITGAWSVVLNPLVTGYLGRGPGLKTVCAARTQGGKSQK", "test": "FDSS-based intracellular calcium assay (Human GRP40 In Vitro assay)", "format": "cell-based", "settings": "cells expressing GPR40, intracellular Ca2+ response", "description": "FDSS-Based Intracellular Calcium Assay\nCell lines expressing GPR40 are generated using the pDEST-3xFLAG gene expression system and are cultured in culture medium comprising the following components: F12 (Gibco #11765), 10% lipid deprived fetal bovine serum, 250 μg/ml zeocin and 500 μg/ml G418. To conduct the fluorescent imaging plate reader (FLIPR)-based calcium flux assay to measure intracellular Ca^2+ response, cells expressing GPR40 are plated on 384 well plates (BD Biocoat #356697) at a density of 20,000 cells/20 μL medium per well in phenol red and serum-free DMEM (Gibco #21063-029) and incubated overnight. Using BD kit #s 80500-310 or -301, the cells are incubated with 20 μL per well of Hank's buffered salt solution with 1.7 mM probenecid and Fluo-3 at 37° C. for 30 min. Compounds are dissolved in DMSO and diluted to desired concentrations with assay buffer and added to the cells as 3× solution (20 μL per well). Run fluorescence/luminescence reader FDSS (Hamamatsu) to read intracellular Ca^2+ response.\nThe exemplified Examples disclosed below were tested in the Human GRP40 In Vitro assay described above and found having hGRP40 modulating activity.", "values": [{"smiles": "COc1ccc(F)c(-c2ccc(Cc3ccc(N4C[C@](OC)(c5ccc(-c6ccccc6)cc5)C[C@@H]4CC(=O)O)cc3)c(C)c2)c1", "note": "[Example 6, 2-((2R,4R)-4-([1,1′-Biphenyl]-4-yl)-1-(4-((2′-fluoro-5′-methoxy-3-methyl-[1,1′-biphenyl]-4-yl)methyl)phenyl)-4-methoxypyrrolidin-2-yl)acetic Acid, HCl]", "pEC50": 7.11}, {"smiles": "COCCO[C@@H]1C[C@H](CC(=O)O)N(c2ccc(Cc3ccc(-c4cc(OC)ccc4F)cc3C)cc2)C1", "note": "[Example 7, 2-((2R,4R)-1-(4-((2′-Fluoro-5′-methoxy-3-methyl-[1,1′-biphenyl]-4-yl)methyl)phenyl)-4-(2-methoxyethoxy)pyrrolidin-2-yl)acetic Acid, HCl]", "pEC50": 6.62}, {"smiles": "COCCCO[C@H]1CN(c2ccc(Cc3ccc(-c4cc(OC)ccc4F)cc3C)cc2)[C@@H](CC(=O)O)[C@@H]1C", "note": "[Example 17, 2-((2S,3S,4R)-1-(4-((2′-Fluoro-5′-methoxy-3-methyl-[1,1′-biphenyl]-4-yl)methyl)phenyl)-4-(3-methoxypropoxy)-3-methylpyrrolidin-2-yl)acetic Acid, HCl]", "pEC50": 7.41}, {"smiles": "COc1ccc(F)c(-c2ccc(COc3ccc(N4C[C@H](c5ccccc5)C[C@@H]4CC(=O)O)cc3)c(C)c2)c1", "note": "[Example 16, 2-((2R,4S)-1-(4-((2′-Fluoro-5′-methoxy-3-methyl-[1,1′-biphenyl]-4-yl)methoxy)phenyl)-4-phenylpyrrolidin-2-yl)acetic Acid, HCl]", "pEC50": 6.00}, {"smiles": "COc1ccc(F)c(-c2ccc(Cc3ccc(N4C[C@H](C5CCCCC5)C[C@@H]4CC(=O)O)cc3)c(C)c2)c1", "note": "[Example 3, 2-((2R,4S)-4-Cyclohexyl-1-(4-((2′-fluoro-5′-methoxy-3-methyl-[1,1′-biphenyl]-4-yl)methyl)phenyl)pyrrolidin-2-yl)acetic Acid, HCl]", "pEC50": 7.89}, {"smiles": "COc1ccc(F)c(-c2ccc(Cc3ccc(N4C[C@H](c5cccnc5)C[C@@H]4CC(=O)O)cc3)c(C)c2)c1", "note": "[Example 8, 2-((2R,4S)-1-(4-((2′-Fluoro-5′-methoxy-3-methyl-[1,1′-biphenyl]-4-yl)methyl)phenyl)-4-(pyridin-3-yl)pyrrolidin-2-yl)acetic Acid, HCl]", "pEC50": 7.03}, {"smiles": "COc1ccc(F)c(-c2ccc(Cc3ccc(N4CC(c5cc(C)no5)CC4CC(=O)O)cc3)c(C)c2)c1", "note": "(single isomer, unassigned) [Example 9, Isomer 2, 2-(1-(4-((2′-Fluoro-5′-methoxy-3-methyl-[1,1′-biphenyl]-4-yl)methyl)phenyl)-4-(3-methylisoxazol-5-yl)pyrrolidin-2-yl)acetic Acid, HCl]", "pEC50": 5.66}, {"smiles": "COc1ccc(F)c(-c2ccc(Cc3ccc(N4C[C@@H](N5CCCCC5)C[C@@H]4CC(=O)O)cc3)c(C)c2)c1", "note": "(single isomer, unassigned) [Example 13, Isomer 1]", "pEC50": 5.17}, {"smiles": "COc1ccc(F)c(-c2ccc(Cc3ccc(N4C[C@@H](c5ccccc5)C[C@@H]4CC(=O)O)cc3)c(C)c2)c1", "note": "[Example 5, 2-((2R,4R)-1-(4-((2′-Fluoro-5′-methoxy-3-methyl-[1,1′-biphenyl]-4-yl)methyl)phenyl)-4-phenylpyrrolidin-2-yl)acetic Acid]", "pEC50": 6.89}, {"smiles": "COc1ccc(F)c(-c2ccc(Cc3ccc(N4C[C@H](N5CCCCC5)C[C@@H]4CC(=O)O)cc3)c(C)c2)c1", "note": "(single isomer, unassigned) [Example 13, Isomer 2]", "pEC50": 5.55}, {"smiles": "COc1ccc(F)c(-c2ccc(Cc3ccc(N4C[C@@H](c5ccccc5OC)C[C@@H]4CC(=O)O)cc3)c(C)c2)c1", "note": "(single isomer, unassigned) [Example 15, Isomer 2, HCl]", "pEC50": 7.21}, {"smiles": "COc1ccc(F)c(-c2ccc(Cc3ccc(N4CC(c5cccc(Cl)c5)C[C@@H]4CC(=O)O)cc3)c(C)c2)c1", "note": "(single isomer, unassigned) [Example 12, Isomer 1, HCl]", "pEC50": 6.80}, {"smiles": "COc1ccc(F)c(-c2ccc(Cc3ccc(N4CC(c5ccon5)CC4CC(=O)O)cc3)c(C)c2)c1", "note": "(single isomer, unassigned) [Example 11, Isomer 2, 2-(1-(4-((2′-Fluoro-5′-methoxy-3-methyl-[1,1′-biphenyl]-4-yl)methyl)phenyl)-4-(isoxazol-3-yl)pyrrolidin-2-yl)acetic Acid, HCl]", "pEC50": 6.26}, {"smiles": "COc1ccc(F)c(-c2ccc(Cc3ccc(N4CC(c5ccon5)CC4CC(=O)O)cc3)c(C)c2)c1", "note": "(single isomer, unassigned) [Example 11, Isomer 1, 2-(1-(4-((2′-Fluoro-5′-methoxy-3-methyl-[1,1′-biphenyl]-4-yl)methyl)phenyl)-4-(isoxazol-3-yl)pyrrolidin-2-yl)acetic Acid, HCl]", "pEC50": 5.09}, {"smiles": "COc1ccc(F)c(-c2ccc(Cc3ccc(N4C[C@@H](c5ccccn5)C[C@@H]4CC(=O)O)cc3)c(C)c2)c1", "note": "[Example 10, 2-((2R,4S)-1-(4-((2′-Fluoro-5′-methoxy-3-methyl-[1,1′-biphenyl]-4-yl)methyl)phenyl)-4-(pyridin-2-yl)pyrrolidin-2-yl)acetic Acid, HCl]", "pEC50": 5.85}, {"smiles": "COc1ccc(F)c(-c2ccc(Cc3ccc(N4CC(c5cc(C)no5)CC4CC(=O)O)cc3)c(C)c2)c1", "note": "(single isomer, unassigned) [Example 9, Isomer 3, 2-(1-(4-((2′-Fluoro-5′-methoxy-3-methyl-[1,1′-biphenyl]-4-yl)methyl)phenyl)-4-(3-methylisoxazol-5-yl)pyrrolidin-2-yl)acetic Acid, HCl]", "pEC50": 5.85}, {"smiles": "COc1ccc(F)c(-c2ccc(Cc3ccc(N4CC(c5cc(C)no5)CC4CC(=O)O)cc3)c(C)c2)c1", "note": "(single isomer, unassigned) [Example 9, Isomer 4, 2-(1-(4-((2′-Fluoro-5′-methoxy-3-methyl-[1,1′-biphenyl]-4-yl)methyl)phenyl)-4-(3-methylisoxazol-5-yl)pyrrolidin-2-yl)acetic Acid, HCl]", "pEC50": 5.46}, {"smiles": "COc1ccc(F)c(-c2ccc(Cc3ccc(N4C[C@H](c5ccccc5OC)C[C@@H]4CC(=O)O)cc3)c(C)c2)c1", "note": "(single isomer, unassigned) [Example 15, Isomer 1, HCl]", "pEC50": 7.41}, {"smiles": "COc1ccc(F)c(-c2ccc(Cc3ccc(N4C[C@H](c5ccc(-c6ccccc6)cc5)C[C@@H]4CC(=O)O)cc3)c(C)c2)c1", "note": "[Example 4, 2-((2R,4S)-4-([1,1′-Biphenyl]-4-yl)-1-(4-((2′-fluoro-5′-methoxy-3-methyl-[1,1′-biphenyl]-4-yl)methyl)phenyl)pyrrolidin-2-yl)acetic Acid, HCl]", "pEC50": 6.68}, {"smiles": "COc1ccc(F)c(-c2ccc(Cc3ccc(N4CC(c5cccc(Cl)c5)C[C@@H]4CC(=O)O)cc3)c(C)c2)c1", "note": "(single isomer, unassigned) [Example 12, Isomer 2, HCl]", "pEC50": 8.00}, {"smiles": "COc1ccc(F)c(-c2ccc(Cc3ccc(N4CC(C#N)CC4CC(=O)O)cc3)c(C)c2)c1", "note": "(centres unmarked) [Example 2, 2-(4-Cyano-1-(4-((2′-fluoro-5′-methoxy-3-methylbiphenyl-4-yl)methyl)phenyl)pyrrolidin-2-yl)acetic Acid, TFA]", "pEC50": 6.57}, {"smiles": "COc1ccc(F)c(-c2ccc(Cc3ccc(N4CC(c5cc(C)no5)CC4CC(=O)O)cc3)c(C)c2)c1", "note": "(single isomer, unassigned) [Example 9, Isomer 1, 2-(1-(4-((2′-Fluoro-5′-methoxy-3-methyl-[1,1′-biphenyl]-4-yl)methyl)phenyl)-4-(3-methylisoxazol-5-yl)pyrrolidin-2-yl)acetic Acid, HCl]", "pEC50": 6.82}, {"smiles": "COc1ccc(F)c(-c2ccc(Cc3ccc(N4C[C@H](c5ccccc5)C[C@@H]4CC(=O)O)cc3)c(C)c2)c1", "note": "[Example 1, 2-((2R,4S)-1-(4-((2′-Fluoro-5′-methoxy-3-methylbiphenyl-4-yl)methyl)phenyl)-4-phenylpyrrolidin-2-yl)acetic Acid, HCl]", "pEC50": 7.82}]}]}
